target: T1, Axl (Homo sapiens, UniProt P30530); test: Phospho-Akt In-Cell Western Assay (inhibition of Axl activity after Axl-antibody cross-linking); assay type: cell-based; conditions: Hela cells, phospho-Akt chemiluminescence normalized to relative cell number; compounds of formula (Ib), Table 2; read-out: IC50
T1 construct: endogenous in cells; host or cells: HeLa cells
T1 sequence (P30530 26-894): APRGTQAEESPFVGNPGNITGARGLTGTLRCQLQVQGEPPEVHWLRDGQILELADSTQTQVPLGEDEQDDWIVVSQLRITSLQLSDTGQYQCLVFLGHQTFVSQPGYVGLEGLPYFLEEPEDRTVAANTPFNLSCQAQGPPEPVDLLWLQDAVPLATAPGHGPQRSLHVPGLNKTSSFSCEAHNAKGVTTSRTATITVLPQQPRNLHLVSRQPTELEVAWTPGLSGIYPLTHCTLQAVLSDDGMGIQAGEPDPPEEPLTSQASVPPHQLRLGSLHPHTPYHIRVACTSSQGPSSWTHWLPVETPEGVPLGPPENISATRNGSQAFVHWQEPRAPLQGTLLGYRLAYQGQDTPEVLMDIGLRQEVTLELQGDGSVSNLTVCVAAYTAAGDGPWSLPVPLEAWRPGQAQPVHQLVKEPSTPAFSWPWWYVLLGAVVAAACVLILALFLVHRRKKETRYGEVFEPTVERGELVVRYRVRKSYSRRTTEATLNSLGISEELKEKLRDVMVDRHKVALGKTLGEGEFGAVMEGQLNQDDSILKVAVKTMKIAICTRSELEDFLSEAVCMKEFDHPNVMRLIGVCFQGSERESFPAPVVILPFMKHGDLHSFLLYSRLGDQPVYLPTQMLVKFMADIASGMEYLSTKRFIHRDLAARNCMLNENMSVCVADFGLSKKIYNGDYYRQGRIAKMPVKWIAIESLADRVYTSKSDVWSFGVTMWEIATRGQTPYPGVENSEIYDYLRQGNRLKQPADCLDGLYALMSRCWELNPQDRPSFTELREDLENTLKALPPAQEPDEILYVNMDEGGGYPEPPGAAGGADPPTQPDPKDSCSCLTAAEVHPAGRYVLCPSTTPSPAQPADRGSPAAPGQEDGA
How it was run: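 HeLa cells on poly-L-lysine, starved 24 h in 0.5% FCS DMEM with Axl/Fc 500 ng/mL, pre-treated with compound 1 h at 37 °C, then stimulated 5 min by anti-Axl/anti-mouse antibody cross-linking. Fixed cells probed for phospho-Akt with HRP secondary and chemiluminescent detection.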

Compared with `CN1CCN(c2ccc(Nc3nc(N)nn3-c3cc4c(nn3)-c3ccccc3CCC4)cc2F)CC1` [Compound 242, 1-(6,7-dihydro-5H-benzo[6,7]cyclohepta[1,2-c]pyridazin-3-yl)-N^5-(3-fluoro-4-(4-methylpiperazin-1-yl)phenyl)-1H-1,2,4-triazole-3,5-diamine], `Nc1nc(Nc2ccc(N3CCN(CC4CC4)CC3)c(F)c2)n(-c2cc3c(nn2)-c2ccccc2CCC3)n1` [Compound 244, 1-(6,7-dihydro-5H-benzo[6,7]cyclohepta[1,2-c]pyridazin-3-yl)-N^5-(3-fluoro-4-(4-cyclopropylmethylpiperazin-1-yl)phenyl)-1H-1,2,4-triazole-3,5-diamine] is lower in IC50: 1000 to 10000 nM for the first, under 1000 nM for the second.

First: Nc1nc(Nc2ccc3c(c2)CNCC3)n(-c2cc3c(nn2)-c2ccccc2CCC3)n1 [Compound 243, 1-(6,7-dihydro-5H-benzo[6,7]cyclohepta[1,2-c]pyridazin-3-yl)-N^5-(1,2,3,4-tetrahydroisoquinolin-7-yl)-1H-1,2,4-triazole-3,5-diamine]
Second: Nc1nc(Nc2ccc3c(c2)CC[C@@H](N2CCCC2)CC3)n(-c2cc3c(nn2)-c2ccccc2CCC3)n1 [Compound 249, 1-(6,7-dihydro-5H-benzo[6,7]cyclohepta[1,2-c]pyridazin-3-yl)-N^5-(7-(S)-pyrrolidin-1-yl-6,7,8,9-tetrahydro-5H-benzo[7]annulene-2-yl)-1H-1,2,4-triazole-3,5-diamine]
The IC50 of the first is higher: 1000 to 10000 nM for the first, under 1000 nM for the second. The second is the more potent here.

First: CN1CCC(N2CCc3ccc(Nc4nc(N)nn4-c4cc5c(nn4)-c4ccccc4CCC5)cc3C2)CC1 [Compound 245, 1-(6,7-dihydro-5H-benzo[6,7]cyclohepta[1,2-c]pyridazin-3-yl)-N^5-(2-(1-methylpiperidin-4-yl)-1,2,3,4-tetrahydroisoquinolin-7-yl)-1H-1,2,4-triazole-3,5-diamine]
Second: Nc1nc(Nc2cnc3c(c2)CC2(CCC3)OCCO2)n(-c2cc3c(nn2)-c2ccccc2CCC3)n1 [Compound 248, 1-(6,7-dihydro-5H-benzo[6,7]cyclohepta[1,2-c]pyridazin-3-yl)-N^5-(5,7,8,9-tetrahydrospiro[cyclohepta[b]pyridine-6,2′[1,3]dioxolane]-3-yl)-1H-1,2,4-triazole-3,5-diamine]
The IC50 of the first is lower: 1000 to 10000 nM for the first, over 20000 nM for the second. The first is the more potent here.

same assay, conditions: inhibition of Axl activity; Table 1, compounds of formula (Ia); read-out: IC50

Going from `Nc1nc(Nc2ccc3c(c2)CCC(NCC2CC2)CC3)nn1-c1cc2c(nn1)-c1ccccc1CCC2` (centres unmarked) [Compound 230, 1-(6,7-dihydro-5H-benzo[6,7]cyclohepta[1,2-c]pyridazin-3-yl)-N^3-(7-(cyclopropylmethyl)amino-6,7,8,9-tetrahydro-5H-benzo[7]annulene-2-yl)-1H-1,2,4-triazole-3,5-diamine] to `Nc1nc(Nc2ccc3c(c2)CCC(NCC(=O)O)CC3)nn1-c1cc2c(nn1)-c1ccccc1CCC2` (centres unmarked) [Compound 237, 1-(6,7-dihydro-5H-benzo[6,7]cyclohepta[1,2-c]pyridazin-3-yl)-N^3-(7-(carboxymethyl)amino-6,7,8,9-tetrahydro-5H-benzo[7]annulene-2-yl)-1H-1,2,4-triazole-3,5-diamine], the IC50 rises from under 1000 nM to over 20000 nM. The first is the more potent here.

`CCN(CC)CCN(C)C1CCc2ccc(Nc3nc(N)n(-c4cc5c(nn4)-c4ccccc4CCC5)n3)cc2CC1` (centres unmarked) [Compound 231, 1-(6,7-dihydro-5H-benzo[6,7]cyclohepta[1,2-c]pyridazin-3-yl)-N^3-(7-(2-(diethylamino)ethyl)methyl-amino-6,7,8,9-tetrahydro-5H-benzo[7]annulene-2-yl)-1H-1,2,4-triazole-3,5-diamine] and `CN(C)CCNC1CCc2ccc(Nc3nc(N)n(-c4cc5c(nn4)-c4ccccc4CCC5)n3)cc2CC1` (centres unmarked) [Compound 235] cannot be ordered by IC50: under 1000 nM for the first, under 1000 nM for the second.

`Nc1nc(Nc2ccc3c(c2)CCC(N2CCC(N4CCCC4)CC2)CC3)nn1-c1cc2c(nn1)-c1ccccc1CCC2` (centres unmarked) [Compound 232, 1-(6,7-dihydro-5H-benzo[6,7]cyclohepta[1,2-c]pyridazin-3-yl)-N^3-(7-(4-pyrrolidin-1-ylpiperidin-1-yl)-6,7,8,9-tetrahydro-5H-benzo[7]annulene-2-yl)-1H-1,2,4-triazole-3,5-diamine] and `Nc1nc(Nc2ccc3c(c2)CCC(N2CCC(CN4CCCCC4)CC2)CC3)nn1-c1cc2c(nn1)-c1ccccc1CCC2` (centres unmarked) [Compound 233, 1-(6,7-dihydro-5H-benzo[6,7]cyclohepta[1,2-c]pyridazin-3-yl)-N^3-(7-(4-(piperidin-1-ylmethyl)piperidin-1-yl)-6,7,8,9-tetrahydro-5H-benzo[7]annulene-2-yl)-1H-1,2,4-triazole-3,5-diamine] cannot be ordered by IC50: under 1000 nM for the first, under 1000 nM for the second.

Going from `Nc1nc(Nc2ccc3c(c2)CCC(N)CC3)nn1-c1cc2c(nn1)-c1ccccc1CCC2` (centres unmarked) [Compound 234, 1-(6,7-dihydro-5H-benzo[6,7]cyclohepta[1,2-c]pyridazin-3-yl)-N^3-(7-amino-6,7,8,9-tetrahydro-5H-benzo[7]annulene-2-yl)-1H-1,2,4-triazole-3,5-diamine] to `CC1(C)COC2(CCCc3ncc(Nc4nc(N)n(-c5cc6c(nn5)-c5ccccc5CCC6)n4)cc3CC2)OC1` [Compound 247, 1-(6,7-dihydro-5H-benzo[6,7]cyclohepta[1,2-c]pyridazin-3-yl)-N^3-(5′,5′-dimethyl-6,8,9,10-tetrahydro-5H-spiro[cycloocta[b]pyridine-7,2′-[1,3]dioxane]-3-yl)-1H-1,2,4-triazole-3,5-diamine], the IC50 rises from under 1000 nM to over 20000 nM. The first is the more potent here.

First: Nc1nc(Nc2ccc(C3CCN(C4CC5CCC4C5)CC3)cc2)nn1-c1cc2c(nn1)-c1ccccc1SCC2 (centres unmarked) [Compound 236, 1-(6,7-dihydro-5H-benzo[2,3]thiepino[4,5-c]pyridazin-3-yl)-N^3-(4-(1-bicyclo[2.2.1]heptan-2-yl)-piperidin-4-ylphenyl)-1H-1,2,4-triazole-3,5-diamine]
Second: Nc1nc(Nc2ccc(N3CCC(N4CCCC4)CC3)c(F)c2)nn1-c1cc(-c2ccccc2)c2c(n1)-c1ccccc1CCC2 [Compound 238, 1-(4-phenyl-6,7-dihydro-5H-benzo[6,7]cyclohepta[1,2-b]pyridin-2-yl)-N^3-(3-fluoro-4-(4-pyrrolidin-1-ylpiperidin-1-yl)phenyl)-1H-1,2,4-triazole-3,5-diamine]
The IC50 of the first is lower: under 1000 nM for the first, 1000 to 10000 nM for the second. The first is the more potent here.

First: COc1cc2ncnc(-n3nc(Nc4cnc5c(c4)CC4(CCC5)OCCO4)nc3N)c2cc1OC [Compound 239, 1-(6,7-dimethoxy-quinazolin-4-yl)-N^3-(5,7,8,9-tetrahydrospiro[cyclohepta[b]pyridine-6,2′-[1,3]dioxolane]-3-yl)-1H-1,2,4-triazole-3,5-diamine]
Second: Cc1csc2c(-n3nc(Nc4cnc5c(c4)CC4(CCC5)OCCO4)nc3N)nc(Cl)nc12 [Compound 240, 1-(2-chloro-7-methylthieno[3,2-d]pyrimidin-4-yl)-N^3-(5,7,8,9-tetrahydrospiro[cyclohepta[b]pyridine-6,2′-[1,3]dioxolane]-3-yl)-1H-1,2,4-triazole-3,5-diamine]
The IC50 of the first is higher: 1000 to 10000 nM for the first, under 1000 nM for the second.

`Cc1csc2c(-n3nc(Nc4cnc5c(c4)CCC4(CC5)OCCO4)nc3N)nc(Cl)nc12` [Compound 241, 1-(2-chloro-7-methylthieno[3,2-d]pyrimidin-4-yl)-N^3-(5,6,8,9-tetrahydrospiro[cyclohepta[b]pyridine-7,2′-[1,3]dioxolane]-3-yl)-1H-1,2,4-triazole-3,5-diamine] and `Cc1csc2c(-n3nc(Nc4cnc5c(c4)CCC4(CCC5)OCC(C)(C)CO4)nc3N)nc(Cl)nc12` [Compound 246, 1-(2-chloro-7-methylthieno[3,2-d]pyrimidin-4-yl)-N^3-(5′,5′-dimethyl-6,8,9,10-tetrahydro-5H-spiro[cycloocta[b]pyridine-7,2′-[1,3]dioxane]-3-yl)-1H-1,2,4-triazole-3,5-diamine] cannot be ordered by IC50: under 1000 nM for the first, under 1000 nM for the second.

Reference: patent publication US7709482B2, “Polycyclic heteroaryl substituted triazoles useful as Axl inhibitors” (Rigel Pharmaceuticals, Inc., priority 2006, dated 2010)
